The test system of one assay is HCT116 MTAP-/-. Put plainly: Inhibition of cellular proliferation, 4 days, Cell Titer Glo, HCT116 MTAP-/-. Type of assay: cell-based. As to conditions: Homo sapiens, HCT-116, 96 h, IC50 score, read-out: 4 Day Relative Growth Inhibition (MTAP −/−). In short, it runs like this:
(§1)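 Isogenic human colon carcinoma lines differing only in MTAP status, plated 24 h before dosing, then exposed for 4 days at 37 °C/5% CO2 to a 10-point 3-fold dilution series (0.2% DMSO final). Read-out is Cell Titer Glo ATP luminescence, blank-subtracted and normalised to in-plate DMSO control, plotted as % proliferation change versus log molar concentration.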

In assay [1] the test system is SAM in HCT116 human colon carcinoma cell line with deleted MTAP gene. Put plainly: Cellular assay of target engagement (SAM): SAM level by LC-MS/MS after 72 hrs. The settings on record: HCT-116, IC50 score, read-out: Cell 72 h SAM Inhibition (MTAP −/−). It is filed as cell-based. In short, it runs like this: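 MTAP-deleted HCT116 cells were seeded, then exposed 24 h later to a 10-point 3-fold compound dilution series for 72 h at 37 °C/5% CO2. They were lysed in cold 80% methanol/acetic acid containing d3-SAM internal standard. SAM was quantified by LC-MS/MS (MRM, m/z 399.2→250.1).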

For a further assay, the target named is T1, MAT2A homodimer (Homo sapiens, UniProt P31153).
T1 construct: inferred from Ni sepharose purification and imidazole elution; made in house; host or cells: Sf9 insect cells, recombinant baculovirus (Bac to Bac, pFASTBAC1 vector)
Put plainly: Biochemical assay: inhibition of recombinant MAT2A homodimer (phosphate release, PiColorLock Gold). As to conditions: MAT2A IC50 score; read-out: Enzyme Inhibition. The method in brief:
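Baculovirus/Sf9-expressed, Ni-purified MAT2A at 4 μg/mL in pH 8.0 Tris/KCl/MgCl2/EDTA/BSA buffer, preincubated with compound 60 min at 25 °C. Started with ATP and L-methionine substrate mix (500 μM and 40 μM, stock in mix), 60 min at 25 °C; released phosphate by PiColorLock Gold against a phosphate standard curve.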

For another assay, the system named is HCT116 MTAP +/+. The assay is described as follows: Inhibition of cellular proliferation, 4 days, Cell Titer Glo, HCT116 MTAP+/+. Type of assay: cell-based. The settings on record: Homo sapiens, HCT-116, 96 h, IC50 score, read-out: 4 Day Relative Growth Inhibition (MTAP +/+). In short, it runs like this: as §1
For orientation: ATP-based viability assays read luminescence as a measure of living cells.

pIC50: −log10 of the molar value.

In US20220251081A1, “HETEROBICYCLIC INHIBITORS OF MAT2A AND METHODS OF USE FOR TREATING CANCER” (priority 2019, published 2022) one finds IC50 data, which are given here for 29 compounds.

T1 sequence (P31153 whole entry): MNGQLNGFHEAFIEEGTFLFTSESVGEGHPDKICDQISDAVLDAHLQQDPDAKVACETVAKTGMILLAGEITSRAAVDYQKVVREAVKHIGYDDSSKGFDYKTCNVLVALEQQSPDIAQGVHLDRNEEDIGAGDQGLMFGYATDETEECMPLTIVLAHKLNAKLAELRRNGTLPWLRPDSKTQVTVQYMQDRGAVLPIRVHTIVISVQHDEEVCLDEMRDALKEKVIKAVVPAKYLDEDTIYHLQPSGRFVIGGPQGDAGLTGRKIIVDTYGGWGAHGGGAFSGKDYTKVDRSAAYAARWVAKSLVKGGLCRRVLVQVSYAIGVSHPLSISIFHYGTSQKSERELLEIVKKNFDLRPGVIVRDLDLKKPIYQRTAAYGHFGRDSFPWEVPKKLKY

With `Cn1cc2cc(-c3nc4ccc(NCC(F)(F)F)nc4n(-c4ccc(OC(F)F)cc4)c3=O)ccc2n1` [Example 225], the pIC50 is above 7.00 in the assay on HCT116 MTAP-/-, above 7.00 in assay [1], above 7.00 at MAT2A homodimer and at most 6.00 in the assay on HCT116 MTAP +/+.

With `Cn1cc2cc(-c3nc4ccc(NCC(F)(F)F)nc4n(-c4ccc(Cl)cc4)c3=O)ccc2n1` [Example 226], the pIC50 is above 7.00 with HCT116 MTAP-/-, above 7.00 in assay [1], above 7.00 at MAT2A homodimer and at most 6.00 in the assay on HCT116 MTAP +/+.

In the case of `COc1ccc(-c2nc3ccc(NCC(F)(F)F)nc3n(-c3ccc(OC(F)F)cc3)c2=O)cc1` [Example 227], the pIC50 with HCT116 MTAP-/- was above 7.00; in assay [1], above 7.00; on MAT2A homodimer, above 7.00; with HCT116 MTAP +/+ it was at most 6.00.

For the compound `Cn1cc2cc(-c3nc4ccc(OCC(F)F)nc4n(-c4ccc(OC(F)F)cc4)c3=O)ccc2n1` [Example 228], the pIC50 was above 7.00 with HCT116 MTAP-/-, above 7.00 in assay [1], above 7.00 on MAT2A homodimer and at most 6.00 with HCT116 MTAP +/+.

Turning to `CCOc1cnc2cc(-c3ccc4nn(C)cc4c3)c(=O)n(-c3ccc(Cl)cc3)c2n1` [Example 229, 5-(4-chlorophenyl)-3-ethoxy-7-(2-methyl-2H-indazol-5-yl)pyrido[2,3-b]pyrazin-6(5H)-one], the pIC50 in the assay with HCT116 MTAP-/- is above 7.00; in assay [1] it was above 7.00; on MAT2A homodimer it was above 7.00; in the assay with HCT116 MTAP +/+, at most 6.00.

With `CCOc1cnc2cc(-c3ccc(OC)cc3)c(=O)n(-c3ccc(OC(F)F)cc3)c2n1` [Example 230], the pIC50 in the assay with HCT116 MTAP-/- is 6.00 to 7.00; in assay [1], above 7.00; at MAT2A homodimer, above 7.00; in the assay on HCT116 MTAP +/+, 6.00 to 7.00.

On to `CCOc1cnc2cc(-c3ccc4nn(C)cc4c3)c(=O)n(-c3ccc(OC(F)F)cc3)c2n1` [Example 231], for which the pIC50 was above 7.00 in the assay with HCT116 MTAP-/-, above 7.00 in assay [1], above 7.00 on MAT2A homodimer and 6.00 to 7.00 in the assay with HCT116 MTAP +/+.

For the compound `COc1ccc(-c2cc3cnc(NCC(F)(F)F)nc3n(-c3ccc(Br)cc3)c2=O)cc1` [Example 232, 8-(4-bromophenyl)-6-(4-methoxyphenyl)-2-(2,2,2-trifluoroethylamino)pyrido[2,3-d]pyrimidin-7(8H)-one], the pIC50 is 6.00 to 7.00 in the assay on HCT116 MTAP-/-, above 7.00 in assay [1], above 7.00 at MAT2A homodimer and at most 6.00 with HCT116 MTAP +/+.

Turning to `COc1ccc(-c2cc3cnc(NCC(F)(F)F)nc3n(-c3ccc(-c4ccn[nH]4)cc3)c2=O)cc1` [Example 233, 8-(4-(1H-pyrazol-5-yl)phenyl)-6-(4-methoxyphenyl)-2-(2,2,2-trifluoroethylamino)pyrido[2,3-d]pyrimidin-7(8H)-one], the pIC50 with HCT116 MTAP-/- is above 7.00; in assay [1], above 7.00; on MAT2A homodimer it was above 7.00; with HCT116 MTAP +/+ it was at most 6.00.

Turning to `COc1ccc(-n2c(=O)c(-c3ccc(=O)[nH]c3)cc3cnc(NCC(F)(F)F)nc32)cc1` [Example 235, 8-(4-methoxyphenyl)-6-(6-oxo-1,6-dihydropyridin-3-yl)-2-(2,2,2-trifluoroethylamino)pyrido[2,3-d]pyrimidin-7(8H)-one], the pIC50 is 6.00 to 7.00 with HCT116 MTAP-/-, 6.00 to 7.00 in assay [1], above 7.00 on MAT2A homodimer and at most 6.00 in the assay on HCT116 MTAP +/+.

Consider `CCCc1ccc2cc(-c3ccc4nn(C)cc4c3)c(=O)n(-c3ccc(Cl)cc3)c2n1` [Example 236, 1-(4-chlorophenyl)-3-(2-methyl-2H-indazol-5-yl)-7-propyl-1,8-naphthyridin-2(1H)-one], for which the pIC50 in the assay with HCT116 MTAP-/- was above 7.00; in assay [1], above 7.00; at MAT2A homodimer it was above 7.00; in the assay with HCT116 MTAP +/+, at most 6.00.

With `COc1ccc(-c2cc3ncc(NCC(F)(F)F)nc3n(-c3ccc(OC(F)F)cc3)c2=O)cc1` [Example 237, 5-(4-(difluoromethoxy)phenyl)-7-(4-methoxyphenyl)-3-((2,2,2-trifluoroethyl)amino)pyrido[2,3-b]pyrazin-6(5H)-one], the pIC50 is above 7.00 in the assay on HCT116 MTAP-/-, above 7.00 in assay [1], above 7.00 on MAT2A homodimer and at most 6.00 in the assay on HCT116 MTAP +/+.

As to `[2H]C([2H])([2H])Oc1ccc(-n2c(=O)c(-c3ccc4nn(C)cc4c3)cc3ccc(OC([2H])([2H])C([2H])([2H])[2H])nc32)cc1` [Example 301], the pIC50 was above 7.00 in the assay on HCT116 MTAP-/-, above 7.00 in assay [1], above 7.00 on MAT2A homodimer and 6.00 to 7.00 in the assay on HCT116 MTAP +/+.

In the case of `[2H]C([2H])([2H])Oc1ccc(-n2c(=O)c(-c3ccc4nn(C)cc4c3)cc3ccc(OCCF)nc32)cc1` [Example 302], the pIC50 in the assay with HCT116 MTAP-/- is above 7.00; in assay [1], above 7.00; at MAT2A homodimer it was above 7.00; with HCT116 MTAP +/+, 6.00 to 7.00.

With `[2H]C([2H])([2H])Oc1ccc(-n2c(=O)c(-c3ccc4nn(C([2H])([2H])[2H])cc4c3)cc3ccc(OC([2H])([2H])C([2H])([2H])[2H])nc32)cc1` [Example 303], the pIC50 is above 7.00 with HCT116 MTAP-/-, above 7.00 in assay [1], above 7.00 on MAT2A homodimer and 6.00 to 7.00 with HCT116 MTAP +/+.

On to `[2H]C([2H])([2H])Oc1ccc(-n2c(=O)c(-c3ccc4nn(C)cc4c3)cc3ccc(O[C@@H](C)C(F)(F)F)nc32)cc1` [Example 305], for which the pIC50 with HCT116 MTAP-/- was above 7.00; in assay [1], above 7.00; at MAT2A homodimer, above 7.00; in the assay on HCT116 MTAP +/+, at most 6.00.

`CCNc1ccc2cc(-c3ccc4nn(C)cc4c3)c(=O)n(-c3ccc(C)nc3)c2n1` [Example 307]: the pIC50 in the assay with HCT116 MTAP-/- is above 7.00; in assay [1], above 7.00; at MAT2A homodimer it was above 7.00; in the assay on HCT116 MTAP +/+ it was at most 6.00.

`CCNc1ccc2cc(-c3ccc4nn(C)cc4c3)c(=O)n(-c3ccc(C4CC4)nc3)c2n1` [Example 308]: the pIC50 is above 7.00 in the assay on HCT116 MTAP-/-, above 7.00 in assay [1], above 7.00 at MAT2A homodimer and at most 6.00 in the assay on HCT116 MTAP +/+.

Take `CCNc1ccc2cc(-c3ccc4nn(C)cc4c3)c(=O)n(-c3ccc(OC(F)F)cc3)c2n1` [Example 309]: the pIC50 (in the assay on HCT116 MTAP-/-; in assay [1]; at MAT2A homodimer; with HCT116 MTAP +/+) was above 7.00 each time.

Regarding `CCNc1ccc2cc(-c3ccc4nn(C)cc4c3)c(=O)n(-c3ccc(Cl)cc3)c2n1` [Example 310], the pIC50 in the assay with HCT116 MTAP-/- is above 7.00; in assay [1], above 7.00; at MAT2A homodimer, above 7.00; in the assay on HCT116 MTAP +/+, 6.00 to 7.00.

With `COc1ccc(-n2c(=O)c(-c3ccc4nn(C)cc4c3)cc3ccc(OCC(F)(F)F)nc32)cc1` [Example 313], the pIC50 in the assay with HCT116 MTAP-/- is above 7.00; in assay [1] it was above 7.00; at MAT2A homodimer, above 7.00; with HCT116 MTAP +/+, at most 6.00.

On to `Cn1cc2cc(-c3cc4ccc(OCC(F)(F)F)nc4n(-c4ccc(C5CC5)cc4)c3=O)ccc2n1` [Example 314], for which the pIC50 was above 7.00 with HCT116 MTAP-/-, above 7.00 in assay [1], above 7.00 on MAT2A homodimer and at most 6.00 in the assay with HCT116 MTAP +/+.

Take `[2H]C([2H])([2H])Oc1ccc(-n2c(=O)c(-c3ccc4nn(C)cc4c3)cc3ccc(OCC(F)(F)F)nc32)cc1` [Example 316]: the pIC50 with HCT116 MTAP-/- is above 7.00; in assay [1] it was above 7.00; at MAT2A homodimer it was above 7.00; with HCT116 MTAP +/+, at most 6.00.

In the case of `CCOc1ccc2cc(-c3ccc4nn(C)cc4c3)c(=O)n(-c3ccc(Br)cc3)c2n1` [Example 317], the pIC50 with HCT116 MTAP-/- is 6.00 to 7.00; in assay [1], above 7.00; on MAT2A homodimer, above 7.00; in the assay on HCT116 MTAP +/+ it was 6.00 to 7.00.

`Cn1cc2cc(-c3cc4ccc(OCC(F)F)nc4n(-c4ccc(Br)cc4)c3=O)ccc2n1` [Example 318]: the pIC50 was above 7.00 in the assay on HCT116 MTAP-/-, above 7.00 in assay [1], above 7.00 at MAT2A homodimer and 6.00 to 7.00 in the assay with HCT116 MTAP +/+.

With `Cn1cc2cc(-c3cc4ccc(OCC(F)(F)F)nc4n(-c4ccc(Br)cc4)c3=O)ccc2n1` [Example 319], the pIC50 was above 7.00 in the assay with HCT116 MTAP-/-, above 7.00 in assay [1], above 7.00 at MAT2A homodimer and at most 6.00 in the assay with HCT116 MTAP +/+.

Consider `Cn1cc2cc(-c3cc4ccc(OCC(F)(F)F)nc4n(-c4ccc(N)nc4)c3=O)ccc2n1` [Example 320], for which the pIC50 with HCT116 MTAP-/- was above 7.00; in assay [1], above 7.00; at MAT2A homodimer it was above 7.00; with HCT116 MTAP +/+ it was 6.00 to 7.00.

As for `Cn1cc2cc(-c3cc4ccc(OCC(F)F)nc4n(-c4ccc(OC(F)F)cc4)c3=O)ccc2n1` [Example 321], the pIC50 was above 7.00 in the assay on HCT116 MTAP-/-, above 7.00 in assay [1], above 7.00 at MAT2A homodimer and at most 6.00 in the assay on HCT116 MTAP +/+.

On to `[2H]C([2H])([2H])Oc1ccc(-n2c(=O)c(-c3ccc4nn(C)cc4c3)cc3ccc(OC(C)C)nc32)cc1` [Example 322], for which the pIC50 is above 7.00 with HCT116 MTAP-/-, above 7.00 in assay [1], above 7.00 at MAT2A homodimer and at most 6.00 in the assay with HCT116 MTAP +/+.
